Experimental data: patent US9802949B2, “Fused ring compounds as hepatitis C virus inhibitors, pharmaceutical compositions and uses thereof” (SUNSHINE LAKE PHARMA CO., LTD., priority 2012, dated 2017)

Experiments:
HCV GT1a replicon = assay: HCV replicon assay (Huh-7 cells stably transfected with HCV GT1a replicon; luciferase or NEO gene qPCR readout); assay type: cell-based; details: Hepatitis C virus, HCV 1a genotype replicon, 72 hours
Experimental: (§1) HCV Replicon System was utilized as a screening model in the present disclosure to evaluate the antivirus effects of the compounds disclosed herein against HCV. HCV Replicon assay was first described in Science, 1999, 285 (5424), 110-3. […] To determine the potential anti-HCV effects of the test compounds, luciferase assay and antibiotic Neomycin resistance gene were tested according to the method described in Science. 1999 Jul. 2; 285 (5424), 110-3 and J. Virol. 2003 March; 77 (5), 3007-19.
(§2) In a word, the compounds disclosed herein were tested by using human hepatic carcinoma cell line Huh-7 which is transfected stably with HCV GT1a, GT1b or GT2a replicon respectively, and resistant cells of Y93H, L31F, P32L or I302V and wild-type cells HCV 1b. HCV Replicon System disclosed herein contains G418 resistance gene NEO and Luciferase Reporter Gene, and the level of HCV replication in host cells is detected and characterized by the expression level of the NEO gene or Luciferase Reporter Gene, so the effects of the compounds herein inhibit HCV replication can be evaluated in this system. In this article, a real-time quantitative polymerase chain reaction (qPCR) method was used to detect NEO gene expression level, and chemiluminescence method was used to test Luciferase Reporter Gene expression level.
(§3) 1. Test Method for Measuring EC50 of the Compounds Based on Luciferase Assay.
(§4) The Huh-7 cells transfected with HCV replicons system were seeded into 96-well plates (8,000 cells in 125 μL/well) respectively; each test compound was diluted to desired concentration using 5-fold serial dilutions protocol, 10 doses in duplicate, and added to wells with POD™ 810 Plate Assembler. The plates were incubated in a CO2 incubator for 72 hours; after that, 40 μL of Luciferase assay substrate (Promega Bright-Glo) was added to each well, and detected by a chemiluminescence detection system (Topcount Microplate Scintillation and Luminescence Counter) 5 minutes later; the EC50 (half-maximal effective concentration, concentration for 50% of maximal effect) values of test compounds were analyzed by GraphPad Prism software. In this paper, experiments were repeated twice and set the wells without compounds as negative control.
(§5) 2. Test Method for Measuring EC50 of the Compounds by Detecting Antibiotic G418 Resistance Gene NEO Gene.
(§6) The Huh-7 cells transfected with HCV replicons system were seeded into 96-well plates (8,000 cells in 125 μL/well) respectively; each test compound was diluted to desired concentration using 5-fold serial dilutions protocol, 10 doses in duplicate, and added to each well with POD™ 810 Plate Assembler; the cells were incubated in a CO2 incubator for 72 hours; and detected the expression level of the NEO gene expression with real-time quantitative PCR later; the EC50 (half-maximal effective concentration, concentration for 50% of maximal effect) values of test compounds were analyzed by GraphPad Prism software, respectively. In this paper, experiments were repeated twice and set the wells without compounds as negative control.

HCV GT1b replicon = assay: HCV replicon assay (Huh-7 cells stably transfected with HCV GT1b replicon; luciferase or NEO gene qPCR readout); assay type: cell-based; details: Hepatitis C virus, HCV 1b genotype replicon, 72 hours
Experimental: as §1, §2, §3, §4, §5, §6

Row | SMILES | EC50 (HCV GT1a replicon) [nM] | EC50 (HCV GT1b replicon) [nM]
1 | COC(=O)N[C@H](C(=O)N1CCC[C@H]1c1ncc(-c2ccc(-c3ccc(-c4cnc([C@@H]5CCCN5C(=O)[C@@H](NC(=O)OC)C(C)C)[nH]4)c4c3C3CCC3C4)cc2)[nH]1)C(C)C (stereo partly shown) [Example 1] | 0.605 | 0.005
2 | COC(=O)N[C@H](C(=O)N1CCC[C@H]1c1nc2ccc(-c3ccc(-c4ccc(-c5cnc([C@@H]6C7CCC(C7)N6C(=O)[C@@H](NC(=O)OC)C(C)C)[nH]5)cc4)c4c3C3CCC3C4)cc2[nH]1)C(C)C (stereo partly shown) [Example 2] | 0.071 | 0.021
3 | COC(=O)N[C@H](C(=O)N1CCC[C@H]1c1nc2ccc(-c3ccc(-c4ccc(-c5cnc([C@@H]6CC7CC7N6C(=O)[C@@H](NC(=O)OC)C(C)C)[nH]5)cc4)c4c3CC3CCC43)cc2[nH]1)C(C)C (stereo partly shown) [Example 3] | 0.088 | 0.018
4 | COC(=O)N[C@H](C(=O)N1CCC[C@H]1c1ncc(-c2ccc(-c3ccc(-c4ccc5nc([C@@H]6CCCN6C(=O)[C@@H](NC(=O)OC)C(C)C)[nH]c5c4)c4c3C3CCC3C4)cc2)[nH]1)C(C)C (stereo partly shown) [Example 4] | 0.06 | 0.02
5 | COC(=O)N[C@@H](C)C(=O)N1CCCC1C1=Nc2cc(-c3ccc(-c4cnc([C@@H]5CCCN5C(=O)[C@H](C)NC(=O)OC)[nH]4)c4c3CC3CCC43)ccc2C2(COC2)N1 (stereo partly shown) [Example 5] | 1.04 | 0.119
6 | COC(=O)N[C@H](C(=O)N1CCC[C@H]1c1ncc(C#Cc2ccc(-c3ccc4nc([C@@H]5CCCN5C(=O)[C@@H](NC(=O)OC)C(C)C)[nH]c4c3)c3c2C2CCC2C3)[nH]1)C(C)C (stereo partly shown) [Example 6] | 0.243 | 0.106
7 | COC(=O)N[C@H](C(=O)N1CCC[C@H]1c1ncc(-c2ccc(-c3ccc(-c4ccc5nc([C@@H]6CCCN6C(=O)[C@@H](NC(=O)OC)C(C)C)[nH]c5c4)c4c3CC3CCC43)s2)[nH]1)C(C)C (stereo partly shown) [Example 7] | 0.093 | 0.053
8 | COC(=O)N[C@H](C(=O)N1CCC[C@H]1c1ncc(-c2ccc(-c3ccc(-c4ccc5nc([C@@H]6CCCN6C(=O)[C@@H](NC(=O)OC)C(C)C)[nH]c5c4)c4c3C3CCC3C4)nc2)[nH]1)C(C)C (stereo partly shown) [Example 8] | 0.066 | 0.028
9 | COC(=O)N[C@H](C(=O)N1C[C@@H](F)C[C@H]1c1ncc(-c2ccc(-c3ccc(-c4ccc5nc([C@@H]6C[C@H](F)CN6C(=O)[C@@H](NC(=O)OC)C(C)C)[nH]c5c4)c4c3C3CCC3C4)cc2)[nH]1)C(C)C (stereo partly shown) [Example 9] | 0.035 | 0.014
10 | CC(C)[C@H](NC(=O)OC(C)(C)C)C(=O)N1CCC[C@H]1c1ncc(-c2ccc(-c3ccc(-c4cnc([C@@H]5CCCN5C(=O)[C@@H](NC(=O)OC(C)(C)C)C(C)C)[nH]4)c4c3C3CCC3C4)cc2)[nH]1 (stereo partly shown) [Example 10] | 4.33 | 0.927
11 | COC(=O)N[C@H](C(=O)N1CCC[C@H]1c1ncc(-c2ccc(-c3ccc(-c4ccc5nc([C@@H]6CC7CC7N6C(=O)[C@@H](NC(=O)OC)C(C)C)[nH]c5c4)c4c3C3CCC3C4)cc2)[nH]1)C(C)C (stereo partly shown) [Example 11] | 0.051 | 0.033
12 | COC(=O)N[C@H](C(=O)N1CC(F)(F)C[C@H]1c1ncc(-c2ccc(-c3ccc(-c4ccc5[nH]c([C@@H]6CC(F)(F)CN6C(=O)[C@@H](NC(=O)OC)C(C)C)nc5c4)c4c3C3CCC3C4)cc2)[nH]1)C(C)C (stereo partly shown) [Example 12] | 0.08 | 0.027
13 | COC(=O)N[C@H](C(=O)N1CCCC[C@H]1c1ncc(-c2ccc(-c3ccc(-c4ccc5nc([C@@H]6CCCCN6C(=O)[C@@H](NC(=O)OC)C(C)C)[nH]c5c4)c4c3C3CCC3C4)cc2)[nH]1)C(C)C (stereo partly shown) [Example 13] | 0.418 | 0.206
14 | COC(=O)N[C@H](C(=O)N1C[C@@H](C)C[C@H]1c1ncc(-c2ccc(-c3ccc(-c4ccc5nc([C@@H]6C[C@H](C)CN6C(=O)[C@@H](NC(=O)OC)C(C)C)[nH]c5c4)c4c3C3CCC3C4)cc2)[nH]1)C(C)C (stereo partly shown) [Example 14] | 0.003 | 0.001
